{"source": "the supplement of paper PMC10307832", "test_in_all_cases": "relative viability (nuclei count vs DMSO), 5 days (fraction); higher = more cells survive", "key": {"[1]": {"compound": "CN(C)C[C@@H]1CCn2cc(c3ccccc32)C2=C(C(=O)NC2=O)c2cn(c3ccccc23)CCO1 [Ruboxistaurin]", "in_short": "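Lung cancer cell lines received five library-drug doses (not always all listed) spaced by √10, pinned on vehicle-anchored 1536-well plates after an overnight stay at 37 °C. Five days later, with no medium change, nuclei were Hoechst-stained, imaged at 4× and counted with MetaXpress. Viability is treated-well nuclei relative to vehicle-well nuclei, as a median across plates. Passing plates had control CV below 25% and at least one doubling.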"}, "[2]": {"compound": "CN(C)C[C@@H]1CCn2cc(c3ccccc32)C2=C(C(=O)NC2=O)c2cn(c3ccccc23)CCO1 [Ruboxistaurin] + O=C(c1cc(Cc2n[nH]c(=O)c3ccccc23)ccc1F)N1CCN(C(=O)C2CC2)CC1 [Olaparib] (partner 8 µM)", "in_short": "(§1)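 Relative viability equals treated-well nuclei counts divided by vehicle-well nuclei counts. Counts came from 4× images of lung cancer cell lines grown in 1536-well plates for 5 days after pin-tool dosing on the day after seeding. Dosing used one drug alone or a fixed anchor-drug dose plus five library-drug doses (not always all listed) in √10 steps, and values are medians of duplicate plates.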"}, "[3]": {"compound": "CN(C)C[C@@H]1CCn2cc(c3ccccc32)C2=C(C(=O)NC2=O)c2cn(c3ccccc23)CCO1 [Ruboxistaurin] + CS(=O)(=O)N1CCN(Cc2cc3nc(-c4cccc5[nH]ncc45)nc(N4CCOCC4)c3s2)CC1 [Pictilisib] (partner 1 µM)", "in_short": "as §1"}, "[4]": {"compound": "CN(C)C[C@@H]1CCn2cc(c3ccccc32)C2=C(C(=O)NC2=O)c2cn(c3ccccc23)CCO1 [Ruboxistaurin] + COc1cc2c(Oc3ccc(NC(=O)C4(C(=O)Nc5ccc(F)cc5)CC4)cc3F)ccnc2cc1OCCCN1CCOCC1 [Foretinib] (partner 0.25 µM)", "in_short": "as §1"}, "[5]": {"compound": "CN(C)C[C@@H]1CCn2cc(c3ccccc32)C2=C(C(=O)NC2=O)c2cn(c3ccccc23)CCO1 [Ruboxistaurin] + CC1(C)CCC(c2ccc(Cl)cc2)=C(CN2CCN(c3ccc(C(=O)NS(=O)(=O)c4ccc(N[C@H](CCN5CCOCC5)CSc5ccccc5)c(S(=O)(=O)C(F)(F)F)c4)cc3)CC2)C1 [Navitoclax] (partner 0.5 µM)", "in_short": "as §1"}, "[6]": {"compound": "CN(C)C[C@@H]1CCn2cc(c3ccccc32)C2=C(C(=O)NC2=O)c2cn(c3ccccc23)CCO1 [Ruboxistaurin] + CS(=O)(=O)CCNCc1ccc(-c2ccc3ncnc(Nc4ccc(OCc5cccc(F)c5)c(Cl)c4)c3c2)o1 [Lapatinib] (partner 2 µM)", "in_short": "as §1"}, "[7]": {"compound": "CN(C)C[C@@H]1CCn2cc(c3ccccc32)C2=C(C(=O)NC2=O)c2cn(c3ccccc23)CCO1 [Ruboxistaurin] + Cc1nc(NC(=O)N2CCC[C@H]2C(N)=O)sc1-c1ccnc(C(C)(C)C(F)(F)F)c1 [Alpelisib] (partner 2 µM)", "in_short": "as §1"}, "[8]": {"compound": "CN(C)C[C@@H]1CCn2cc(c3ccccc32)C2=C(C(=O)NC2=O)c2cn(c3ccccc23)CCO1 [Ruboxistaurin] + C[C@]1(O)C[C@@H](c2nc(-c3ccc4ccc(-c5ccccc5)nc4c3)c3c(N)nccn32)C1 [Linsitinib] (partner 1 µM)", "in_short": "as §1"}, "[9]": {"compound": "CN(C)C[C@@H]1CCn2cc(c3ccccc32)C2=C(C(=O)NC2=O)c2cn(c3ccccc23)CCO1 [Ruboxistaurin] + CC(C)C[C@H](NC(=O)[C@H](Cc1ccccc1)NC(=O)c1cnccn1)B(O)O [Bortezomib] (partner 0.002 µM)", "in_short": "as §1"}, "[10]": {"compound": "CN(C)C[C@@H]1CCn2cc(c3ccccc32)C2=C(C(=O)NC2=O)c2cn(c3ccccc23)CCO1 [Ruboxistaurin] + C[C@@H](Oc1cc(-c2cnn(C3CCNCC3)c2)cnc1N)c1c(Cl)ccc(F)c1Cl [Crizotinib] (partner 1 µM)", "in_short": "as §1"}}, "data": [{"cell line": "Calu-6", "values": [{"measurement": "relative viability", "setting": "[1]; 0.08 µM", "result": 1.07}, {"measurement": "relative viability", "setting": "[1]; 0.8 µM", "result": 0.951}, {"measurement": "relative viability", "setting": "[1]; 2.53 µM", "result": 1.06}, {"measurement": "relative viability", "setting": "[1]; 8 µM", "result": 0.982}, {"measurement": "relative viability", "setting": "[2]; first compound 0.08 µM", "result": 0.635}, {"measurement": "relative viability", "setting": "[2]; first compound 0.8 µM", "result": 0.564}, {"measurement": "relative viability", "setting": "[2]; first compound 2.53 µM", "result": 0.669}, {"measurement": "relative viability", "setting": "[2]; first compound 8 µM", "result": 0.585}, {"measurement": "relative viability", "setting": "[3]; first compound 0.08 µM", "result": 0.94}, {"measurement": "relative viability", "setting": "[3]; first compound 0.8 µM", "result": 0.848}, {"measurement": "relative viability", "setting": "[3]; first compound 2.53 µM", "result": 0.795}, {"measurement": "relative viability", "setting": "[3]; first compound 8 µM", "result": 0.607}, {"measurement": "relative viability", "setting": "[4]; first compound 0.08 µM", "result": 0.949}, {"measurement": "relative viability", "setting": "[4]; first compound 0.8 µM", "result": 0.848}, {"measurement": "relative viability", "setting": "[4]; first compound 2.53 µM", "result": 0.93}, {"measurement": "relative viability", "setting": "[4]; first compound 8 µM", "result": 0.893}, {"measurement": "relative viability", "setting": "[5]; first compound 0.08 µM", "result": 0.967}, {"measurement": "relative viability", "setting": "[5]; first compound 0.8 µM", "result": 0.776}, {"measurement": "relative viability", "setting": "[5]; first compound 2.53 µM", "result": 0.862}, {"measurement": "relative viability", "setting": "[5]; first compound 8 µM", "result": 1.01}, {"measurement": "relative viability", "setting": "[6]; first compound 0.08 µM", "result": 1.15}, {"measurement": "relative viability", "setting": "[6]; first compound 0.8 µM", "result": 1.02}, {"measurement": "relative viability", "setting": "[6]; first compound 2.53 µM", "result": 1.08}, {"measurement": "relative viability", "setting": "[6]; first compound 8 µM", "result": 0.933}, {"measurement": "relative viability", "setting": "[7]; first compound 0.08 µM", "result": 0.95}, {"measurement": "relative viability", "setting": "[7]; first compound 0.8 µM", "result": 0.897}, {"measurement": "relative viability", "setting": "[7]; first compound 2.53 µM", "result": 0.981}, {"measurement": "relative viability", "setting": "[7]; first compound 8 µM", "result": 0.809}, {"measurement": "relative viability", "setting": "[8]; first compound 0.08 µM", "result": 0.978}, {"measurement": "relative viability", "setting": "[8]; first compound 0.8 µM", "result": 0.804}, {"measurement": "relative viability", "setting": "[8]; first compound 2.53 µM", "result": 0.913}, {"measurement": "relative viability", "setting": "[8]; first compound 8 µM", "result": 0.942}, {"measurement": "relative viability", "setting": "[9]; first compound 0.08 µM", "result": 1.12}, {"measurement": "relative viability", "setting": "[9]; first compound 0.8 µM", "result": 0.948}, {"measurement": "relative viability", "setting": "[9]; first compound 2.53 µM", "result": 1.1}, {"measurement": "relative viability", "setting": "[9]; first compound 8 µM", "result": 1.17}, {"measurement": "relative viability", "setting": "[10]; first compound 0.08 µM", "result": 0.899}, {"measurement": "relative viability", "setting": "[10]; first compound 0.8 µM", "result": 0.697}, {"measurement": "relative viability", "setting": "[10]; first compound 2.53 µM", "result": 0.807}, {"measurement": "relative viability", "setting": "[10]; first compound 8 µM", "result": 0.822}]}, {"cell line": "EBC-1", "values": [{"measurement": "relative viability", "setting": "[1]; 0.08 µM", "result": 1.13}, {"measurement": "relative viability", "setting": "[1]; 0.8 µM", "result": 0.96}, {"measurement": "relative viability", "setting": "[1]; 2.53 µM", "result": 0.97}, {"measurement": "relative viability", "setting": "[1]; 8 µM", "result": 0.932}, {"measurement": "relative viability", "setting": "[2]; first compound 0.08 µM", "result": 0.763}, {"measurement": "relative viability", "setting": "[2]; first compound 0.8 µM", "result": 0.558}, {"measurement": "relative viability", "setting": "[2]; first compound 2.53 µM", "result": 0.663}, {"measurement": "relative viability", "setting": "[2]; first compound 8 µM", "result": 0.447}, {"measurement": "relative viability", "setting": "[3]; first compound 0.08 µM", "result": 0.372}, {"measurement": "relative viability", "setting": "[3]; first compound 0.8 µM", "result": 0.278}, {"measurement": "relative viability", "setting": "[3]; first compound 2.53 µM", "result": 0.296}, {"measurement": "relative viability", "setting": "[3]; first compound 8 µM", "result": 0.215}, {"measurement": "relative viability", "setting": "[4]; first compound 0.08 µM", "result": 0.102}, {"measurement": "relative viability", "setting": "[4]; first compound 0.8 µM", "result": 0.118}, {"measurement": "relative viability", "setting": "[4]; first compound 2.53 µM", "result": 0.121}, {"measurement": "relative viability", "setting": "[4]; first compound 8 µM", "result": 0.102}, {"measurement": "relative viability", "setting": "[5]; first compound 0.08 µM", "result": 0.527}, {"measurement": "relative viability", "setting": "[5]; first compound 0.8 µM", "result": 0.308}, {"measurement": "relative viability", "setting": "[5]; first compound 2.53 µM", "result": 0.381}, {"measurement": "relative viability", "setting": "[5]; first compound 8 µM", "result": 0.358}, {"measurement": "relative viability", "setting": "[6]; first compound 0.08 µM", "result": 0.215}, {"measurement": "relative viability", "setting": "[6]; first compound 0.8 µM", "result": 0.216}, {"measurement": "relative viability", "setting": "[6]; first compound 2.53 µM", "result": 0.2}, {"measurement": "relative viability", "setting": "[6]; first compound 8 µM", "result": 0.201}, {"measurement": "relative viability", "setting": "[7]; first compound 0.08 µM", "result": 0.82}, {"measurement": "relative viability", "setting": "[7]; first compound 0.8 µM", "result": 0.692}, {"measurement": "relative viability", "setting": "[7]; first compound 2.53 µM", "result": 0.741}, {"measurement": "relative viability", "setting": "[7]; first compound 8 µM", "result": 0.706}, {"measurement": "relative viability", "setting": "[8]; first compound 0.08 µM", "result": 1.02}, {"measurement": "relative viability", "setting": "[8]; first compound 0.8 µM", "result": 0.691}, {"measurement": "relative viability", "setting": "[8]; first compound 2.53 µM", "result": 0.89}, {"measurement": "relative viability", "setting": "[8]; first compound 8 µM", "result": 1.04}, {"measurement": "relative viability", "setting": "[9]; first compound 0.08 µM", "result": 0.587}, {"measurement": "relative viability", "setting": "[9]; first compound 0.8 µM", "result": 0.5}, {"measurement": "relative viability", "setting": "[9]; first compound 2.53 µM", "result": 0.437}, {"measurement": "relative viability", "setting": "[9]; first compound 8 µM", "result": 0.454}, {"measurement": "relative viability", "setting": "[10]; first compound 0.08 µM", "result": 0.19}, {"measurement": "relative viability", "setting": "[10]; first compound 0.8 µM", "result": 0.198}, {"measurement": "relative viability", "setting": "[10]; first compound 2.53 µM", "result": 0.17}, {"measurement": "relative viability", "setting": "[10]; first compound 8 µM", "result": 0.167}]}]}
